Experimental data published in ChEMBL document CHEMBL4602732, “Optimizing Pyrazolopyrimidine Inhibitors of Calcium Dependent Protein Kinase 1 for Treatment of Acute and Chronic Toxoplasmosis” (J Med Chem, 2020).

Key:
[1] = Cytotoxicity against MDCK cells assessed as cell growth at 20 uM measured after 72 hrs by cellTiter 96 AQueous non-radioactive cell proliferation assay relative to control; assay type: cell-based, Canis lupus familiaris; conditions: dog, read-out: Activity
Toxoplasma gondii = experiment: Antiparasitic activity against 2F clone of type 1 Toxoplasma gondii RH tachyzoites expressing beta-galactosidase infected in HFF assessed as reduction in parasite growth measured after 72 hrs by chlorophenol Red-beta-D-galactopyranoside substrate based assay; assay type: functional, organism-based
[2] = Oral bioavailability in CD1 mouse at 10 mg/kg administered via gavage by LC-MS/MS analysis; assay type: ADME, organism-based; conditions: in vivo
[3] = Half life in mouse liver microsomes at 10 uM preincubated for 10 mins followed by NADPH addition by LC-MS/MS analysis; assay type: ADME, Microsome; conditions: liver microsomes
[4] = target: Voltage-gated inwardly rectifying potassium channel KCNH2 (Homo sapiens, UniProt Q12809); experiment: Inhibition of human ERG expressed in CHOK1 cells by patch-clamp electrophysiology assay; assay type: cell-based, CHO-K1
[5] = Intrinsic clearance in human liver microsomes at 10 uM preincubated for 10 mins followed by NADPH addition by LC-MS/MS analysis; assay type: ADME, Microsome; conditions: read-out: CLH
[6] = Inhibition of Toxoplasma gondii full-length wild-type C-terminal His-tagged CDPK1 expressed in Escherichia coli BL21(DE3)V2RpAcYc-LIC+LamP using syntide-2 peptide as substrate incubated for 20 to 40 mins by ELISA
CHO-K1 = experiment: Genotoxicity in CHOK1 cells measured after 24 hrs in absence of Sprague-Dawley rat liver S9 fraction by Hoechst/calcein-AM staining based micronucleus test; assay type: toxicity, cell-based, Cricetulus griseus; conditions: chinese hamster, cho-k1, 24 h
Cytochrome P450 1A2 = target: T1, Cytochrome P450 1A2 (Homo sapiens, UniProt P05177); experiment: Inhibition of CYP1A2 in human liver microsomes using phenacetin as substrate measured after 10 mins by LC-MS/MS analysis; assay type: ADME
T1 sequence (P05177 whole entry): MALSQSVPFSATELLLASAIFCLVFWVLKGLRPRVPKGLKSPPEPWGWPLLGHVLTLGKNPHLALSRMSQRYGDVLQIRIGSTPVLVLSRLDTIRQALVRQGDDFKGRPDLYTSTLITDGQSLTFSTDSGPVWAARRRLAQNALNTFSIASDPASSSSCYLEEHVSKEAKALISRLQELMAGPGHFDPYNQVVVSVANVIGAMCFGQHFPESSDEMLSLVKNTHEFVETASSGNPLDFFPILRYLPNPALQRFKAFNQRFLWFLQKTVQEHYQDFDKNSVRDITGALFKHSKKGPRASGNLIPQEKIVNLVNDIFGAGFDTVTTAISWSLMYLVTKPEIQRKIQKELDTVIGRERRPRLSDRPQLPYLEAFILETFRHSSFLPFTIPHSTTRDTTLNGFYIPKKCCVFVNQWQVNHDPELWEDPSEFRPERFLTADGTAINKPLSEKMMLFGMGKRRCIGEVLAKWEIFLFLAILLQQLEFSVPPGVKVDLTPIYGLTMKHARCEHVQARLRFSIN

PTK6 = PTK6 (Homo sapiens, UniProt Q13882); experiment: Inhibition of recombinant human full-length His-tagged PTK6 cytoplasmic domain expressed in baculovirus expression system at 1 uM using Fluorescein-Poly GT as substrate by Lanthascreen assay relative to control; conditions: probe Fluorescein-Poly GT
[7] = Cytotoxicity against human CMEC/D3 cells assessed as cell growth at 20 uM measured after 72 hrs by cellTiter 96 AQueous non-radioactive cell proliferation assay relative to control; assay type: cell-based, hCMEC/D3; conditions: read-out: Activity
[8] = Genotoxicity in Salmonella typhimurium TA100 at 0.004 to 5 mg/ml measured after 90 mins in presence of rat S9 fraction by mini-Ames test; assay type: toxicity, subcellular; conditions: salmonella enterica subsp. enterica serovar typhimurium
[9] = Genotoxicity in Salmonella typhimurium TA98 at 0.004 to 5 mg/ml measured after 90 mins in presence of rat S9 fraction by mini-Ames test; assay type: toxicity, subcellular; conditions: salmonella enterica subsp. enterica serovar typhimurium
[10] = target: Proto-oncogene tyrosine-protein kinase Src (Homo sapiens, UniProt P12931); experiment: Inhibition of human Src expressed in Escherichia coli BL21 using Abltide peptide as substrate incubated for 20 to 40 mins by ELISA
[11] = Toxicity in CD1 mouse assessed as adverse effect at 600 mg/kg measured for 7 days; assay type: organism-based; conditions: in vivo, 168 h
[12] = Half life in human liver microsomes at 10 uM preincubated for 10 mins followed by NADPH addition by LC-MS/MS analysis; assay type: ADME, Microsome; conditions: liver microsomes
[13] = Cmax in CD1 mouse at 3 mg/kg, iv or 10 mg/kg, po administered via gavage by LC-MS/MS analysis; assay type: ADME, organism-based; conditions: in vivo
[14] = AUC in CD1 mouse at 3 mg/kg, iv or 10 mg/kg, po administered via gavage by LC-MS/MS analysis; assay type: ADME, organism-based; conditions: in vivo
[15] = Cytotoxicity against human HepG2 cells assessed as cell growth at 20 uM measured after 72 hrs by cellTiter 96 AQueous non-radioactive cell proliferation assay relative to control; assay type: cell-based; conditions: read-out: Activity
[16] = Clearance in human hepatocytes assessed per million cells at 1 uM by LC-MS/MS analysis; assay type: ADME, cell-based, Hepatocyte
[17] = Protein binding in mouse plasma assessed as unbound fraction at 2 uM measured after 4 hrs by LC-MS/MS analysis; assay type: ADME, cell-free
[18] = Cytotoxicity against HFF monolayers assessed as cell growth measured after 72 hrs by luciferase reporter gene assay relative to control; assay type: cell-based; conditions: human, read-out: Activity
[19] = Apparent permeability across apical to basolateral side in MDCK2-MDR1 cells at 2 uM measured after 150 mins by LC-MS/MS analysis; assay type: ADME, cell-based, Canis lupus familiaris; conditions: dog, mdck-mdr1, […]
[20] = Genotoxicity in Salmonella typhimurium TA100 at 0.004 to 5 mg/ml measured after 90 mins in absence of rat S9 fraction by mini-Ames test; assay type: toxicity; conditions: salmonella enterica subsp. enterica serovar typhimurium

Sequence of PTK6 (Q13882 whole entry, the tested form may be a part): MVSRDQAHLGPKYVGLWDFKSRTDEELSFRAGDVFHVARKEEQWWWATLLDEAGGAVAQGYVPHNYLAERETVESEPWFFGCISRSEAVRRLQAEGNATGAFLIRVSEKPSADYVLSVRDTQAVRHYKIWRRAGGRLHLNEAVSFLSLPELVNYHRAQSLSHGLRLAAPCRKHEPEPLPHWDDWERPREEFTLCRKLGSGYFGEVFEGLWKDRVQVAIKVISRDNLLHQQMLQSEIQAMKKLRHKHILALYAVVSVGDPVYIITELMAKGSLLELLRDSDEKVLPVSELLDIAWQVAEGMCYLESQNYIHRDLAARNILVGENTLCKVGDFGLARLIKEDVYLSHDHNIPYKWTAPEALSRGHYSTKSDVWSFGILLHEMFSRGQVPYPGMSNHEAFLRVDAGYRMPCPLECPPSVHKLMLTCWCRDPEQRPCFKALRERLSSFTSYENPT
Sequence of Voltage-gated inwardly rectifying potassium channel KCNH2 (Q12809 whole entry): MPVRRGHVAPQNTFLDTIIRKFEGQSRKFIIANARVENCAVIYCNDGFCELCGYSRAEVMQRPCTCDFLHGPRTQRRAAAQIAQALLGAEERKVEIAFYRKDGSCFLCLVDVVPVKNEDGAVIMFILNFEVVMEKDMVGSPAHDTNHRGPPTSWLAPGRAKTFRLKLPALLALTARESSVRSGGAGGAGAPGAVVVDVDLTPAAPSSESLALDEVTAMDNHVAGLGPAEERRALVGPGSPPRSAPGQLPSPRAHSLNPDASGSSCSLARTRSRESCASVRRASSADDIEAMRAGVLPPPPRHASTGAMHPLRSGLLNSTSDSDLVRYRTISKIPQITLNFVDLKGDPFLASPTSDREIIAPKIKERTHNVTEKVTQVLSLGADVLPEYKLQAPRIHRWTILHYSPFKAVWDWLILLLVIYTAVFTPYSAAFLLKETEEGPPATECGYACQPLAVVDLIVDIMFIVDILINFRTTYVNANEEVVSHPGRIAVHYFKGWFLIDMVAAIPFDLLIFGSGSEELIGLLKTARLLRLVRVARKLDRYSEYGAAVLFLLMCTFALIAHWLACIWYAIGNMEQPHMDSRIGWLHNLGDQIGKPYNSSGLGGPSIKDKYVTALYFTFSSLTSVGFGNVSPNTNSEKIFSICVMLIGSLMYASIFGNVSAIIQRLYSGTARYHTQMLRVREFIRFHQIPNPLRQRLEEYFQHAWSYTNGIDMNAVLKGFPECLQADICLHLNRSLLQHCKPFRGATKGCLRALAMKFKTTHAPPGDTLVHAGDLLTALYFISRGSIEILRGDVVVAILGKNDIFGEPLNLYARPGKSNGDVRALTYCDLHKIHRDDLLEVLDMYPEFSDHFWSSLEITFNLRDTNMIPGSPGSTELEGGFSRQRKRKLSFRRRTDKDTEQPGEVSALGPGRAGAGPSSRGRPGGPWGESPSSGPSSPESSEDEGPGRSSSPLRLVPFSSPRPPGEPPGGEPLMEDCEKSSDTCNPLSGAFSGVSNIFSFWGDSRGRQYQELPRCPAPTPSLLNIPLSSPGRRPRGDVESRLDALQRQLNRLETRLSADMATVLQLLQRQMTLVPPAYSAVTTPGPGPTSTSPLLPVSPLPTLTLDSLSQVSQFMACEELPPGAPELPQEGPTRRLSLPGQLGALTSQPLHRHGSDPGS
Sequence of Proto-oncogene tyrosine-protein kinase Src (P12931 2-536 limits assumed): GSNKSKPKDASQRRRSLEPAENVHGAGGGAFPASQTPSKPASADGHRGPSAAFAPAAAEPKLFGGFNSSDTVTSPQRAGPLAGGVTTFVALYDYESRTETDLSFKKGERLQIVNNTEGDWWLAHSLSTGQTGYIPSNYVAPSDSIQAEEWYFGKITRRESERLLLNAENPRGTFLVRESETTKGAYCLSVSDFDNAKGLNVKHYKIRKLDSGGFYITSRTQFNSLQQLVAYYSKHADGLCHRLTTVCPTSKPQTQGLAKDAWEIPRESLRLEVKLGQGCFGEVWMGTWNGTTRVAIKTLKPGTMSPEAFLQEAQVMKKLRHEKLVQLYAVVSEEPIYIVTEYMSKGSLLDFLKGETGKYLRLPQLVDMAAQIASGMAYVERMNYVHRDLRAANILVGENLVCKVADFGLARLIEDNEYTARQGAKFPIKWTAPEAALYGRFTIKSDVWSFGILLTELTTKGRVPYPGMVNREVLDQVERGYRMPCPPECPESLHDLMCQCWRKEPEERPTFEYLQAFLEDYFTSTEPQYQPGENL

Row | SMILES | viability at 72 h, 20 µM [1] | EC50 (Toxoplasma gondii) | bioavailability [2] | half-life at 10 µM [3] | IC50 [4] | CLint scaled at 10 µM [5] | IC50 [6] | Activity (CHO-K1) | EC50 (Cytochrome P450 1A2) | inhibition at 1 µM (PTK6) | viability at 72 h, 20 µM [7] | Activity [8] | Activity [9] | IC50 [10] | Activity [11] | half-life at 10 µM [12] | Cmax [13] | AUC [14] | viability at 72 h, 20 µM [15] | CLH [16] | other results
1 | N#Cc1ccnc(Oc2nn([C@H]3C[C@H](F)C3)c3ncnc(N)c23)c1 | 79.4% | 201 nM | 43.1% | > 2.42 h | > 30000 nM | < 8.6 mL/min/kg | 14.9 to 15 nM | > 100 µM | 20800 nM | > 50% | 135% | Non-Toxic | Non-Toxic | > 20000 nM | Non-Toxic | > 2.42 h | 1503 ng/mL | 3140 ng·h/mL | 101% | 10 µL/min/1e6 cells | Fu [17]: 29.3%; viability at 72 h [18]: 112%; Papp [19]: 26.87 ×10⁻⁶ cm/s; Activity [20]: Non-Toxic
2 | Nc1ncnc2c1c(Oc1cc(C(F)(F)F)ccn1)nn2C1CC1 | 97.8% | 172 nM | 83% | > 2.42 h | > 30000 nM | < 8.6 mL/min/kg | 16 to 16.5 nM | > 1000 µM | 460 nM | > 50% | 132% | Non-Toxic | Non-Toxic | > 20000 nM | Non-Toxic | > 2.42 h | 2067 ng/mL | 2677 ng·h/mL | 104% | < 6.4 µL/min/1e6 cells | Fu [17]: 15.6%; viability at 72 h [18]: 106%; Papp [19]: 33 ×10⁻⁶ cm/s; Activity [20]: Non-Toxic
